Measurements reported in patent US11382897B2, “Therapeutic combination for treatment of cerebellar ataxia” (The Regents of the University of Michigan, priority 2017, dated 2022).

Experiments:
[1] = system: non-firing ATXN1[82Q] Purkinje neurons; assay: Cell-attached recordings of Purkinje neuron spiking in acute cerebellar slices; assay type: cell-based, mice; conditions: 5 weeks of age, chlorzoxazone 50 μM, baclofen 10 μM, SKA-31 10 μM, 1-EBIO 100 μM
[2] = system: ATXN1[82Q] Purkinje neurons; assay: Whole-cell patch-clamp recordings: membrane potential and after-hyperpolarization (AHP); assay type: cell-based, mice
[3] = system: ATXN1[82Q] Purkinje neurons; assay: Analysis of intrinsic dendritic excitability (dendritic calcium spikes); assay type: cell-based, mice
[4] = both, mouse, in vivo
Experimental: (§1) SKA-31 was dissolved in drinking water at 600 μM for all studies. […] For vehicle treatment, drinking water containing 0.05% β-(hydroxypropyl)-cyclodextrin, NaOH, and sucrose was used. Water bottles were changed twice weekly. Mice were treated with water bottles beginning at 28 days of age and maintained on water bottles for the duration of the experiment.

[5] = system: SCA patients; conditions: human, in vivo
[6] = Water solubility (preparation of drinking water); assay type: physicochemical
Experimental: as §1

| SMILES | restoration of repetitive (tonic) spiking in non-firing Purkinje neurons [1] | membrane potential of depolarized Purkinje neurons after the agent [2] [mV] | dendritic (hyper)excitability: threshold of injected current to elicit dendritic calcium spikes [3] | effect of baclofen on dendritic excitability in the presence of TEA ([3]; TEA 1 mM, baclofen 2 μM) | effect of baclofen on dendritic excitability in the presence of U73122 ([3]; U73122 10 μM in recording pipette (phospholipase C inhibitor), baclofen 2 μM) | effect of baclofen on dendritic excitability in the presence of barium ([3]; barium 500 μM, baclofen 2 μM) | effect of baclofen on dendritic excitability with cesium in the recording pipette ([3]; cesium chloride 140 mM in the recording pipette, baclofen 2 μM) | brain level [4] [nM] | plasma level [4] [nM] | Other comments: tolerability [5] | duration of the AHP ([2]; SKA-31 10 μM, chlorzoxazone 50 μM and baclofen 10 μM) | water solubility [6] |
| --- | --- | --- | --- | --- | --- | --- | --- | --- | --- | --- | --- | --- |
| NCC(CC(=O)O)c1ccc(Cl)cc1 (stereo not drawn) [baclofen, Baclofen] | Neither chlorzoxazone alone nor baclofen alone consistently restores spiking | −52 | reduce dendritic hyperexcitability | does not block the effect of baclofen | did not prevent the effect of baclofen on dendritic excitability | did not prevent the effect of baclofen | prevents the effect of baclofen | 377.35 ± 58.50 | 3060 ± 510 | Could not tolerate; | – | – |
| Nc1nc2c(ccc3ccccc32)s1 [SKA-31, Naphtho[1,2-d]thiazol-2-ylamine] | – | – | does not reduce dendritic hyperexcitability | – | – | – | – | 1830 ± 1300 | 39.39 ± 8.05 | – | extended the duration of the AHP | not easily water-soluble |
